Test [1] has as its system EGFR Del19/T790M/C797S (H1975-clone #28). The test can be described thus: EGFR degradation HTRF assay, H1975-clone #28 DTC cells. Format: cell-based. On the procedure: H1975-clone #28(Del19/T790M/C797S) and H1975-clone #23(Del19/C797S). EGFR-Del19/T790M/C797S and EGFR-Del19/C797S were stably expressed in H1975 cell lines by lentivirus-mediated over-expression, respectively. The EGFR over-expressed cells then underwent gene knockout, in which the EGFR targeting sgRNA was designed to only target the endogenous EGFR copies and preserve the exogenous EGFR copies. Followed by the gene knockout, the edited H1975 cells were seeded in 96 well plates at the concentration of 1 cell/well, cultured for about 2 weeks to allow single clones formation. The formed clones were screened by DNA sequencing and whole exon sequencing analysis for the desired edition. H1975-clone #28 and H1975-clone #23 were finally confirmed as homozygous Del19/T790M/C797S EGFR and Del19/C797S EGFR clones, respectively.
(§1) BaF3 WT(wild type), BaF3-LTC(L858R/T790M/C797S) and BaF3-DTC(Del19/T790M/C797S) cells are treated with compounds diluted in 0.2% DMSO cell culture medium and incubate for 16h, 37° C., 5% CO2, H1975-#36, H1975-#28, H1975-#23 and HCC827 cells are treated with compounds diluted in 0.2% DMSO cell culture medium on day 2, incubate for 16h, 37° C., 5% CO2.the final concentriation of compounds in all assay is start with 10 uM, 5-fold dilution, total 8 doses were included.
(§2) After 16h treatment, add HTRF lysis buffer to each well; seal the plate and incubate 1 hour at room temperature on a plate shaker; Once the cells are lysed, 16 μL of cell lysate are transferred to a PE 384-well HTRF detection plate; 4 μL of pre-mixed HTRF antibodies are added to each well; Cover the plate with a plate sealer, spin 1000 rpm for 1 min, Incubate overnight at room temperature; Read on BMG PheraStar with HTRF protocol (337 nm-665 nm-620 nm).
(§3) The inhibition (degradation) percentage of the compound was calculated by the following equation: Inhibition percentage of Compound=100-100×(Signal-low control)/(High control-low control), wherein signal=each test compound group
(§4) High control=Cell group with added DMSO and without compound, indicating microplate readings without EGFR degradation;
(§5) Dmax is the maximum percentage of inhibition (degradation).
(§6) The IC50 (DC50) value of a compound can be obtained by fitting the following equation
(§7) Y=Bottom+(TOP−Bottom)/(1+((IC50/X)^hillslope))
(§8) Wherein, X and Y are known values, and IC50, Hillslope, Top and Bottom are the parameters obtained by fitting with software. Y is the inhibition percentage (calculated from the equation), X is the concentration of the compound; IC50 is the concentration of the compound when the 50% inhibition is reached. The smaller the IC50 value is, the stronger the inhibitory ability of the compound is. Vice versa, the higher the IC50 value is, the weaker the inhibitory ability of the compound is; Hillslope represents the slope of the fitted curve, generally around 1*; Bottom represents the minimum value of the curve obtained by data fitting, which is generally 0%±20%; Top represents the maximum value of the curve obtained by data fitting, which is generally 100%±20%. The experimental data were fitted by calculating and analyzing with Dotmatics data analysis software.

The target in test [2] is T1, EGFR L858R/T790M/C797S (BaF3-LTC cells) (Homo sapiens, UniProt P00533, C797S/L858R/T790M).
T1 construct: expressed in transfected cells; host or cells: BaF3
T1 sequence (P00533 25-1210 T790M/C797S/L858R): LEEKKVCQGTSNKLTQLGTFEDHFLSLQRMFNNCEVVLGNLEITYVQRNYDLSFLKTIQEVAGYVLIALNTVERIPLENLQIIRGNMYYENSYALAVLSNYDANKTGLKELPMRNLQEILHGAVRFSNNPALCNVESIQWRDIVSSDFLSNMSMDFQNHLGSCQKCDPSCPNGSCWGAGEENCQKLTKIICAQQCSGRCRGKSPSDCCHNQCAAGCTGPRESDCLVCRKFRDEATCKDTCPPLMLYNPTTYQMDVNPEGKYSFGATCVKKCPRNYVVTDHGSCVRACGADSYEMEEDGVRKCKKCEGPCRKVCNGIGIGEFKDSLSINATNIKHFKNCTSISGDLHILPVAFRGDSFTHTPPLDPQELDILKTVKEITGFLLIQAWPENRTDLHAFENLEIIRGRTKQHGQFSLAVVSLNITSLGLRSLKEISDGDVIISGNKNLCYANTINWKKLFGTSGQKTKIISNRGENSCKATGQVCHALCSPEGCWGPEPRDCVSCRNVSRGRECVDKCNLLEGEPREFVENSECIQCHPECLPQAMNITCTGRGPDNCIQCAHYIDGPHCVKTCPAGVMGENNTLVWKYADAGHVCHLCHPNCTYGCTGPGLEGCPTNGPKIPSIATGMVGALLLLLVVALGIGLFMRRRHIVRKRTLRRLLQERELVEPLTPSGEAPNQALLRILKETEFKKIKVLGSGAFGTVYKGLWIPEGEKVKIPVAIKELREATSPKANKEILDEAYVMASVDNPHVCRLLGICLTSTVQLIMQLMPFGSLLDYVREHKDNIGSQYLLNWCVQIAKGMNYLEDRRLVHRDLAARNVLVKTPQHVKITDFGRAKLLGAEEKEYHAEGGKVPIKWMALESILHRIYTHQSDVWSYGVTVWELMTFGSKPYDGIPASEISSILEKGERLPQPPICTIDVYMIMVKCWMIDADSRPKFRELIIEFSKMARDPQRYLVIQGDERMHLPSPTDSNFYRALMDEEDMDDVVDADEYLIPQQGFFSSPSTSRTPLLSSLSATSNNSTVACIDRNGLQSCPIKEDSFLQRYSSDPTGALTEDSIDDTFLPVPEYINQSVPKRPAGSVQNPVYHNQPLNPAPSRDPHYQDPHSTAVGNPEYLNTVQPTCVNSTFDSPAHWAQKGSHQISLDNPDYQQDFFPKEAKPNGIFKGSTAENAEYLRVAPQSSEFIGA
Description: EGFR degradation HTRF assay, BaF3-LTC cells. It counts as cell-based. On the procedure:
as §1, §2, §3, §4, §5, §6, §7, §8

[3] abbreviates: H1975 # 28 DTC cells; EGFR degradation, IC50 (DC50) from curve fit; read-out: DC50(nM) H1975 # 28 DTC.
[4] abbreviates: H1975 # 28 DTC cells; maximum percentage of inhibition (degradation).
[5] abbreviates: BaF3-LTC cells; EGFR degradation, IC50 (DC50) from curve fit; read-out: DC50(nM) BaF3-LTC.
Setting [6] is: BaF3-LTC cells; maximum percentage of inhibition (degradation); read-out: Dmax (%) BaF3-LTC.
[7] abbreviates: read-out: DC50(nM) H1975 # 28 DTC; H1975 # 28 DTC cells; EGFR degradation, IC50 (DC50) from curve fit.
The mark [8] stands for this setting: read-out: DC50(nM) BaF3-LTC; BaF3-LTC cells; EGFR degradation, IC50 (DC50) from curve fit.
Setting [9] is: read-out: Dmax (%) BaF3-LTC, BaF3-LTC cells; maximum percentage of inhibition (degradation).

Like-named read-outs stand apart in the source and are kept apart here.

Take `CCOc1cc(N2CCC(N3CCN(CCc4cc(F)cc5c4oc(=O)n5C4CCC(=O)NC4=O)CC3)CC2)c(CC)cc1Nc1ncc(Br)c(Nc2ccc3nc(CC)ccc3c2P(C)(C)=O)n1` (stereo not shown) [Example 472, 3-(7-(2-(4-(1-(4-((5-bromo-4-((5-(dimethylphosphoryl)-2-ethylquinolin-6-yl)amino)pyrimidin-2-yl)amino)-5-ethoxy-2-ethylphenyl)piperidin-4-yl)piperazin-1-yl)ethyl)-5-fluoro-2-oxobenzo[d]oxazol-3(2H)-yl)piperidine-2,6-dione]: the results for the 50% degradation concentration (DC50) in test [1] (setting [3]) and in test [2] (setting [5]) were 0.945 nM and 19.6 nM, respectively. The “Dmax (%) H1975 # 28 DTC” value in test [1] (setting [4]) is 80.01%. For the same compound, in test [2] (setting [6]), the greatest degradation seen (Dmax) was determined as 86.9%.

Take `CCOc1cc(N2CCC(N3CCN(C[C@@H]4CCN(c5cc(F)cc6c5oc(=O)n6C5CCC(=O)NC5=O)C4)CC3)CC2)c(CC)cc1Nc1ncc(Br)c(Nc2ccc3nc(CC)ccc3c2P(C)(C)=O)n1` (stereo partly drawn) [Example 476, 3-(7-((S)-3-((4-(1-(4-((5-bromo-4-((5-(dimethylphosphoryl)-2-ethylquinolin-6-yl)amino)pyrimidin-2-yl)amino)-5-ethoxy-2-ethylphenyl)piperidin-4-yl)piperazin-1-yl)methyl)pyrrolidin-1-yl)-5-fluoro-2-oxobenzo[d]oxazol-3(2H)-yl)piperidine-2,6-dione]: the results for the DC50 in test [1] (setting [3]) and in test [2] (setting [5]) were 7.95 nM and 26.5 nM, respectively. The “Dmax (%) H1975 # 28 DTC” value in test [1] (setting [4]) was 74.62%. Moreover, the Dmax in test [2] (setting [6]) was found to be 88%.

Consider `CCOc1cc(N2CCC(N3CCN(C(=O)[C@@H]4CCN(c5cc(F)cc6c5oc(=O)n6C5CCC(=O)NC5=O)C4)CC3)CC2)c(CC)cc1Nc1ncc(Br)c(Nc2ccc3nc(CC)ccc3c2P(C)(C)=O)n1` (stereo partly drawn) [Example 477, 3-(7-((R)-3-(4-(1-(4-((5-bromo-4-((5-(dimethylphosphoryl)-2-ethylquinolin-6-yl)amino)pyrimidin-2-yl)amino)-5-ethoxy-2-ethylphenyl)piperidin-4-yl)piperazine-1-carbonyl)pyrrolidin-1-yl)-5-fluoro-2-oxobenzo[d]oxazol-3(2H)-yl)piperidine-2,6-dione], for which the “Dmax (%) H1975 # 28 DTC” value in test [1] (setting [4]) is 73.35%. For the same compound, the DC50 in test [1] (setting [7]) was found to be 4.24 nM; in test [2] (setting [8]), 7.16 nM. In test [2] (setting [9]), the Dmax turned out to be 82.7%.

In the case of `CCOc1cc(N2CCC(N3CCN(C(=O)[C@@H]4CCN(c5cccc6c5oc(=O)n6C5CCC(=O)NC5=O)C4)CC3)CC2)c(CC)cc1Nc1ncc(Br)c(Nc2ccc3nc(CC)ccc3c2P(C)(C)=O)n1` (stereo partly drawn) [Example 478, 3-(7-((R)-3-(4-(1-(4-((5-bromo-4-((5-(dimethylphosphoryl)-2-ethylquinolin-6-yl)amino)pyrimidin-2-yl)amino)-5-ethoxy-2-ethylphenyl)piperidin-4-yl)piperazine-1-carbonyl)pyrrolidin-1-yl)-2-oxobenzo[d]oxazol-3(2H)-yl)piperidine-2,6-dione], the “Dmax (%) H1975 # 28 DTC” value in test [1] (setting [4]) was determined as 80.49%. The DC50 in test [1] (setting [7]) is 0.645 nM; in test [2] (setting [8]), 3.05 nM. Besides, in test [2] (BaF3-LTC cells; maximum percentage of inhibition (degradation)), the “Dmax (%) BaF3-LTC” value turned out to be 88.22%.

For the compound `CCOc1cc(N2CCC(N3CCN(C(=O)[C@H]4CN(c5cc(F)cc6c5oc(=O)n6C5CCC(=O)NC5=O)CC4(C)C)CC3)CC2)c(CC)cc1Nc1ncc(Br)c(Nc2ccc3nc(CC)ccc3c2P(C)(C)=O)n1` (stereo partly drawn) [Example 480, 3-(7-((R)-4-(4-(1-(4-((5-bromo-4-((5-(dimethylphosphoryl)-2-ethylquinolin-6-yl)amino)pyrimidin-2-yl)amino)-5-ethoxy-2-ethylphenyl)piperidin-4-yl)piperazine-1-carbonyl)-3,3-dimethylpyrrolidin-1-yl)-5-fluoro-2-oxobenzo[d]oxazol-3(2H)-yl)piperidine-2,6-dione], in test [1] (setting [4]), the “Dmax (%) H1975 # 28 DTC” value was determined as 69.54%. For the same compound, the DC50 in test [1] (setting [7]) amounted to 7.82 nM; in test [2] (setting [8]), 18.9 nM. The Dmax in test [2] (setting [9]) was 89.4%.

`CCc1ccc2c(P(C)(C)=O)c(Nc3nc(Nc4cc(CC)c(N5CCC(N6CCN(CC7CN(c8cc(F)c(C9CCC(=O)NC9=O)c(F)c8)C7)CC6)CC5)cc4OC)ncc3Br)ccc2n1` (stereo not shown) [Example 508, 3-(4-(3-((4-(1-(4-((5-bromo-4-((5-(dimethylphosphoryl)-2-ethylquinolin-6-yl)amino)pyrimidin-2-yl)amino)-2-ethyl-5-methoxyphenyl)piperidin-4-yl)piperazin-1-yl)methyl)azetidin-1-yl)-2,6-difluorophenyl)piperidine-2,6-dione]: the results for the DC50 in test [1] (setting [3]) and in test [2] (setting [5]) were 1 nM and 14.7 nM, respectively. Also, in test [1] (setting [4]), the “Dmax (%) H1975 # 28 DTC” value was 72.7%. Further, in test [2] (setting [6]), the maximal degradation (Dmax) turned out to be 89.3%.

Consider `CCc1cc(Nc2ncc(Br)c(Nc3cc(F)c4nc(C)ccc4c3P(C)(C)=O)n2)c(OC)cc1N1CCC(N2CCN(CCc3cc(F)c([C@H]4CCC(=O)NC4=O)c(F)c3)CC2)CC1` [Example 510, (R)-3-(4-(2-(4-(1-(4-((5-bromo-4-((5-(dimethylphosphoryl)-8-fluoro-2-methylquinolin-6-yl)amino)pyrimidin-2-yl)amino)-2-ethyl-5-methoxyphenyl)piperidin-4-yl)piperazin-1-yl)ethyl)-2,6-difluorophenyl)piperidine-2,6-dione], for which the results for the 50% degradation concentration (DC50) in test [1] (setting [3]) and in test [2] (setting [5]) were 0.763 nM and 3.89 nM, respectively. Also, the “Dmax (%) H1975 # 28 DTC” value in test [1] (setting [4]) was 67.2%. Besides, the Dmax in test [2] (setting [6]) was 93.1%.

Turning to `CCc1cc(Nc2ncc(Br)c(Nc3cc(F)c4nc(C)ccc4c3P(C)(C)=O)n2)c(OC)cc1N1CCC(N2CCN(C(=O)C3CCN(c4cc(F)c(C5CCC(=O)NC5=O)c(F)c4)CC3)CC2)CC1` (stereo not shown) [Example 512, 3-(4-(4-(4-(1-(4-((5-bromo-4-((5-(dimethylphosphoryl)-8-fluoro-2-methylquinolin-6-yl)amino)pyrimidin-2-yl)amino)-2-ethyl-5-methoxyphenyl)piperidin-4-yl)piperazine-1-carbonyl)piperidin-1-yl)-2,6-difluorophenyl)piperidine-2,6-dione], the DC50 came out at 2.36 nM in test [1] (setting [3]) and 6.46 nM in test [2] (setting [5]). Also, the “Dmax (%) H1975 # 28 DTC” value in test [1] (setting [4]) is 60.54%. In addition, the Dmax in test [2] (setting [6]) stood at 92%.

For `COc1cc(N2CCC(N3CCN(C(=O)[C@H]4CCN(c5cc(F)c(C6CCC(=O)NC6=O)c(F)c5)C4)CC3)CC2)c(C)cc1Nc1ncc(Br)c(Nc2ccc3c(=O)n(C)ncc3c2P(C)(C)=O)n1` (stereo partly drawn) [Example 513, 3-(4-((S)-3-(4-(1-(4-((5-bromo-4-((5-(dimethylphosphoryl)-2-methyl-1-oxo-1,2-dihydrophthalazin-6-yl)amino)pyrimidin-2-yl)amino)-5-methoxy-2-methylphenyl)piperidin-4-yl)piperazine-1-carbonyl)pyrrolidin-1-yl)-2,6-difluorophenyl)piperidine-2,6-dione], the results for the 50% degradation concentration (DC50) in test [1] (setting [3]) and in test [2] (setting [5]) were 1.37 nM and 10.2 nM, respectively. The “Dmax (%) H1975 # 28 DTC” value in test [1] (setting [4]) stood at 78.24%. Further, the Dmax in test [2] (setting [6]) stood at 85.2%.

As to `CCc1ccc2c(P(C)(C)=O)c(Nc3nc(Nc4cc(CC)c(N5CCC(N6CCN(C(=O)[C@@H]7CCN(c8cc(F)c(C9CCC(=O)NC9=O)c(F)c8)C7)CC6)CC5)cc4OC)ncc3Br)ccc2n1` (stereo partly drawn) [Example 515, 3-(4-((R)-3-(4-(1-(4-((5-bromo-4-((5-(dimethylphosphoryl)-2-ethylquinolin-6-yl)amino)pyrimidin-2-yl)amino)-2-ethyl-5-methoxyphenyl)piperidin-4-yl)piperazine-1-carbonyl)pyrrolidin-1-yl)-2,6-difluorophenyl)piperidine-2,6-dione], the half-maximal degradation concentration (DC50) came to 3.22 nM in test [1] (setting [3]) and 19.7 nM in test [2] (setting [5]). Also, the “Dmax (%) H1975 # 28 DTC” value in test [1] (setting [4]) is 66.35%. In addition, the Dmax in test [2] (setting [6]) was 90.4%.

A word on the DC50: it is the concentration at which degradation of the target reaches its halfway point. In general, Dmax refers to the greatest extent of degradation seen.

The values are drawn from patent US20230265116A1, “DEGRADATION OF (EGFR) BY CONJUGATION OF EGFR INHIBITORS WITH E3 LIGASE LIGAND AND METHODS OF USE” (BEIGENE, LTD., priority 2020, published 2023).
